# Source: US12435044B2, “Pyridazinone herbicides and pyridazinone intermediates used to prepare a herbicide” (FMC Corporation, priority 2018, dated 2025)
# Columns and labels:
# Format in all cases: in vivo
# [1] = system: giant foxtail (SETFA; Setaria faberi); test: Test G preemergence, mixtures of Cpd. No. 20 with (b15C1)
# From the text: (§1) This test evaluated the effect of mixtures of Cpd. No. 20 with (b15C1) on several plant species. Seeds of plant species selected from corn (ZEAMD; Zea mays, cv. ‘Pioneer 1184’), soybean (GLXMA; Glycine max, cv. Pioneer 35T58), giant foxtail (SETFA; Setaria faberi), barnyardgrass (ECHCG; Echinochloa crus-galli), large crabgrass (DIGSA; Digitaria sanguinalis), palmer amaranth (AMAPA; Amaranthus palmeri), common waterhemp (AMATU; Amaranthus rudis), and common ragweed (AMBEL; Ambrosia artemisiifolia) were planted in pots containing Tama Silt Loam soil and treated preemergence with a directed soil spray using test chemicals formulated in a non-phytotoxic solvent mixture which included a surfactant.
# (§2) Treated plants and untreated controls were maintained in a greenhouse for approximately 21 d, after which time all treated plants were compared to untreated controls and visually evaluated for injury. Plant response ratings, summarized in Table G, are based on a 0 to 100 scale where 0 is no effect and 100 is complete control. A dash (-) response means no test result. Test results are presented as a mean of 4 reps.
# [2] = system: barnyardgrass (ECHCG; Echinochloa crus-galli); test: as above
# From the text: as §1, §2
# [3] = system: common ragweed (AMBEL; Ambrosia artemisiifolia); test: as above
# From the text: as §1, §2
# [4] = system: corn (ZEAMD; Zea mays, cv. ‘Pioneer 1184’); test: as above
# From the text: as §1, §2
# [5] = system: palmer amaranth (AMAPA; Amaranthus palmeri); test: as above
# From the text: as §1, §2
# [6] = system: soybean (GLXMA; Glycine max, cv. Pioneer 35T58); test: as above
# From the text: as §1, §2
# [7] = system: common waterhemp (AMATU; Amaranthus rudis); test: as above
# From the text: as §1, §2
# [8] = system: large crabgrass (DIGSA; Digitaria sanguinalis); test: as above
# From the text: as §1, §2
# [9] = system: giant foxtail (SETFA; Setaria faberi); test: Test of Tables L1 to L3, postemergence, mixtures of Cpd. No. 20 with benoxacor, isoxadifen-ethyl, or cloquintocet-mexyl; conditions: for Plant response rating (0 to 100 scale) SETFA: approx. 14 d
# From the text: (§3) This test evaluated the effect of mixtures of Cpd. No. 20 with benoxacor, isoxadifen-ethyl, or cloquintocet-mexyl on several plant species. Seeds of plant species selected from corn (ZEAMD; Zea mays, cv. ‘Pioneer 1184’), soybean (GLXMA; Glycine max, cv. Pioneer 35T58), winter wheat (TRZAW; Triticum aetivum, cv. Arezzo), rice (ORYSS; Oryza sativa, cv. M202), and giant foxtail (SETFA; Setaria faberi) were planted in pots containing Redi-Earth® planting medium (Scotts Company, 14111 Scottslawn Road, Marysville, Ohio 43041) comprising spaghnum peat moss, vermiculite, wetting agent and starter nutrients and treated postemergence using test chemicals formulated in a non-phytotoxic solvent mixture which included a surfactant. Plants ranged in height from 7 to 10 cm and were in the one- to two-leaf stage for the postemergence treatment. Treated plants and untreated controls were maintained in a greenhouse for approximately 14 d, after which time all treated plants were compared to untreated controls and visually evaluated for injury. Plant response ratings, summarized in Tables L1 to L3, are based on a 0 to 100 scale where 0 is no effect and 100 is complete control. A dash (-) response means no test result. Test results are presented as a mean of 4 reps.
# [10] = system: corn (ZEAMD; Zea mays, cv. ‘Pioneer 1184’); test: as above; conditions: for Plant response rating (0 to 100 scale) ZEAMD: approx. 14 d
# From the text: as §3
# [11] = system: winter wheat (TRZAW; Triticum aetivum, cv. Arezzo); test: as above; conditions: for Plant response rating (0 to 100 scale) TRZAW: approx. 14 d
# From the text: as §3
# [12] = system: soybean (GLXMA; Glycine max, cv. Pioneer 35T58); test: as above; conditions: for Plant response rating (0 to 100 scale) GLXMA: approx. 14 d
# From the text: as §3
# [13] = system: rice (ORYSS; Oryza sativa, cv. M202); test: as above; conditions: for Plant response rating (0 to 100 scale) ORYSS: approx. 14 d
# From the text: as §3
# [14] = Cpd. No. 20 alone 125 g a.i./ha
# [15] = Cpd. No. 20 alone 250 g a.i./ha
# [16] = Cpd. No. 20 alone 375 g a.i./ha
compound,measurement,setting,value
"Cc1ccc2ccc(C)c(-c3c(O)c(Cl)nn(C)c3=O)c2c1 [Cpd. No. 20, 6-chloro-4-(2,7-dimethyl-1-naphthalenyl)-5-hydroxy-2-methyl-3(2H)-pyridazinone]",Plant response rating (0 to 100 scale),[1]; Cpd. No. 20 16 g a.i./ha alone,66
same,Plant response rating (0 to 100 scale),[1]; Cpd. No. 20 31 g a.i./ha alone,88
same,Plant response rating (0 to 100 scale),[1]; Cpd. No. 20 62 g a.i./ha alone,74
same,Plant response rating (0 to 100 scale),[2]; Cpd. No. 20 16 g a.i./ha alone,21
same,Plant response rating (0 to 100 scale),[2]; Cpd. No. 20 31 g a.i./ha alone,51
same,Plant response rating (0 to 100 scale),[2]; Cpd. No. 20 62 g a.i./ha alone,70
same,Plant response rating (0 to 100 scale),[3]; Cpd. No. 20 16 g a.i./ha alone,48
same,Plant response rating (0 to 100 scale),[3]; Cpd. No. 20 31 g a.i./ha alone,73
same,Plant response rating (0 to 100 scale),[3]; Cpd. No. 20 62 g a.i./ha alone,74
same,Plant response rating (0 to 100 scale),[4]; Cpd. No. 20 16 g a.i./ha alone,0
same,Plant response rating (0 to 100 scale),[4]; Cpd. No. 20 31 g a.i./ha alone,0
same,Plant response rating (0 to 100 scale),[4]; Cpd. No. 20 62 g a.i./ha alone,0
same,Plant response rating (0 to 100 scale),[5]; Cpd. No. 20 16 g a.i./ha alone,73
same,Plant response rating (0 to 100 scale),[5]; Cpd. No. 20 31 g a.i./ha alone,70
same,Plant response rating (0 to 100 scale),[5]; Cpd. No. 20 62 g a.i./ha alone,78
same,Plant response rating (0 to 100 scale),[6]; Cpd. No. 20 16 g a.i./ha alone,0
same,Plant response rating (0 to 100 scale),[6]; Cpd. No. 20 31 g a.i./ha alone,18
same,Plant response rating (0 to 100 scale),[6]; Cpd. No. 20 62 g a.i./ha alone,24
same,Plant response rating (0 to 100 scale),[7]; Cpd. No. 20 16 g a.i./ha alone,55
same,Plant response rating (0 to 100 scale),[7]; Cpd. No. 20 31 g a.i./ha alone,96
same,Plant response rating (0 to 100 scale),[7]; Cpd. No. 20 62 g a.i./ha alone,99
same,Plant response rating (0 to 100 scale),[8]; Cpd. No. 20 16 g a.i./ha alone,9
same,Plant response rating (0 to 100 scale),[8]; Cpd. No. 20 31 g a.i./ha alone,11
same,Plant response rating (0 to 100 scale),[8]; Cpd. No. 20 62 g a.i./ha alone,25
same,"SETFA plant response rating, 0 to 100 scale",[9]; 125 g a.i./ha,84
same,"SETFA plant response rating, 0 to 100 scale",[9]; 250 g a.i./ha,88
same,"SETFA plant response rating, 0 to 100 scale",[9]; 375 g a.i./ha,90
same,Plant response rating (0 to 100 scale) SETFA,[9]; [14],84
same,Plant response rating (0 to 100 scale) SETFA,[9]; [15],88
same,Plant response rating (0 to 100 scale) SETFA,[9]; [16],90
same,"ZEAMD plant response rating, 0 to 100 scale",[10]; 125 g a.i./ha,8
same,"ZEAMD plant response rating, 0 to 100 scale",[10]; 250 g a.i./ha,1
same,"ZEAMD plant response rating, 0 to 100 scale",[10]; 375 g a.i./ha,34
same,Plant response rating (0 to 100 scale) ZEAMD,[10]; [14],8
same,Plant response rating (0 to 100 scale) ZEAMD,[10]; [15],1
same,Plant response rating (0 to 100 scale) ZEAMD,[10]; [16],34
same,"TRZAW plant response rating, 0 to 100 scale",[11]; 125 g a.i./ha,28
same,"TRZAW plant response rating, 0 to 100 scale",[11]; 250 g a.i./ha,36
same,"TRZAW plant response rating, 0 to 100 scale",[11]; 375 g a.i./ha,39
same,Plant response rating (0 to 100 scale) TRZAW,[11]; [14],28
same,Plant response rating (0 to 100 scale) TRZAW,[11]; [15],36
same,Plant response rating (0 to 100 scale) TRZAW,[11]; [16],39
same,"GLXMA plant response rating, 0 to 100 scale",[12]; 125 g a.i./ha,15
same,"GLXMA plant response rating, 0 to 100 scale",[12]; 250 g a.i./ha,29
same,"GLXMA plant response rating, 0 to 100 scale",[12]; 375 g a.i./ha,39
same,Plant response rating (0 to 100 scale) GLXMA,[12]; [14],15
same,Plant response rating (0 to 100 scale) GLXMA,[12]; [15],29
same,Plant response rating (0 to 100 scale) GLXMA,[12]; [16],39
same,"ORYSS plant response rating, 0 to 100 scale",[13]; 125 g a.i./ha,5
same,"ORYSS plant response rating, 0 to 100 scale",[13]; 250 g a.i./ha,18
same,"ORYSS plant response rating, 0 to 100 scale",[13]; 375 g a.i./ha,23
same,Plant response rating (0 to 100 scale) ORYSS,[13]; [14],5
same,Plant response rating (0 to 100 scale) ORYSS,[13]; [15],18
same,Plant response rating (0 to 100 scale) ORYSS,[13]; [16],23
